Reference: patent US20100093748A1, “SUBSTITUTED PIPERIDINES HAVING PROTEIN KINASE INHIBITING ACTIVITY” (ASTEX THERAPEUTICS LIMITED, priority 2006, published 2010)

Assays:
PKB-PIF fusion protein = molecular target: T1, PKB-PIF fusion protein (Homo sapiens, UniProt P31751); assay: Measurement of PKB kinase inhibitory activity (IC50), radiometric filter plate assay; format: biochemical; settings: 0.6 nM enzyme, 30 μM ATP, AKTide-2T substrate, 20 minutes
T1 construct: PIF (fusion partner); made in house
Description: The inhibition of protein kinase B (PKB) activity by compounds can be determined essentially as described by Andjelkovic et al. (Mol. Cell. Biol. 19, 5061-5072 (1999)) but using a fusion protein described as PKB-PIF and described in full by Yang et al (Nature Structural Biology 9, 940-944 (2002)). The protein is purified and activated with PDK1 as described by Yang et al. The peptide AKTide-2T (H-A-R-K-R-E-R-T-Y-S-F-G-H-H-A-OH) obtained from Calbiochem (#123900) is used as a substrate. A final concentration of 0.6 nM enzyme is used in a buffer that includes 20 mM MOPS pH 7.2, 30 μM ATP/γ^33P-ATP and 25 µM substrate. Compounds are added in DMSO solution to a final DMSO concentration of 2.5%. The reaction is allowed to proceed for 20 minutes before addition of excess orthophosphoric acid to quench activity. The reaction mixture is transferred to a phosphocellulose filter plate where the peptide binds and the unused ATP is washed away. After washing, scintillant is added and the incorporated activity measured by scintillation counting.
The % inhibition of the PKB activity is calculated and plotted in order to determine the concentration of test compound required to inhibit 50% of the PKB activity (IC50).

[1] = system: phosphorylation of Serine-9 residue in Glycogen Synthase Kinase-3beta as surrogate marker of cellular PKB (Akt) activity; assay: In vitro MDA-MB-468 human breast adenocarcinoma GSK-3 phosphorylation assay; format: cell-based; settings: MDA-MB-468 cells, 2 hours compound incubation, mean IC50, read-out: Cell pGSK3b IC50
Description: This assay determines the ability of test compounds to inhibit phosphorylation of Serine-9 residue in Glycogen Synthase Kinase-3beta (GSK-313) as a surrogate marker of cellular PKB (Akt) activity, as assessed using Acumen Explorer Fluorescent Plate-Reader technology. A MDA-MB-468 human breast adenocarcinoma cell line (LGC Promochem, Teddington, Middlesex, UK, Catalogue No. HTB-132) was routinely maintained in Dulbecco's modified Eagle's growth medium (DMEM; Invitrogen Limited, Paisley, UK Catalogue No. 11966-025) containing 10% heat-inactivated foetal calf serum (FCS; Sigma, Poole, Dorset, UK, Catalogue No. F0392) and 1% L-glutamine (Gibco, Catalogue No. 25030-024) at 37° C. with 5% CO2 up to a confluency of 70-90%.
For the phosphorylation assay, the cells were detached from the culture flask using Trypsin-EDTA (Invitrogen Limited, Catalogue No. 25300-062) and seeded into the wells of a black transparent-bottom Corning Costar Polystyrene 96 well plate (Fisher Scientific UK, Loughborough, Leicestershire, UK; Catalogue No. 3904 and DPS-130-020K) at a density of 5000 cells per well in 100 μl of complete growth media. The cells were incubated overnight at 37° C. with 5% CO2 to allow them to adhere.
On day 2, the cells were treated with test compounds and incubated for 2 hours at 37° C. with 5% CO2. Test compounds were prepared as 10mM stock solutions in DMSO and dosed directly to required concentration into test wells using non-contact (acoustic dispensing of multiple 2.5 nl droplets directly into assay wells) ECHO dosing technology (Labcyte Inc Sunnyvale, Calif., USA). Each plate contained control wells without test compound.
20 μl of fixing buffer (Phosphate Buffered Saline (PBS) containing 10% formaldehyde; Sigma; Catalogue No. F1635) was then added to each well to give a final well concentration 1.6%. Plates were then incubated for 30 minutes at room temperature prior to the fixative being removed. Each well was washed once with 250 μl of PBS and then 50 μl PBS added to each well. PBS was then aspirated and cells permeabilised and blocked by incubating each well with 50 μl of permeabilisation/blocking buffer (PBS containing 0.5% Tween 20 (Sigma; Catalogue No. P5927) and 5% Marvel Milk Powder (Andrews Pharmacy Ltd, Macclesfield, Cheshire, UK; Catalogue No. APC100199)) for 1 hour at room temperature prior to staining.
Following removal of Perm/Block buffer, 50 μl of primary anti-phospho-GSK-3β antibody (Cell Signalling Technology (New England Biolabs (Uk) Ltd.), Hitchin, Hertfordshire, UK; Catalogue No.9336 diluted 1:400 in Blocking buffer (PBS containing 5% Marvel and 0.05% Tween/Polysorbate 20) was added to each well and incubated overnight at 4° C.
Each well was washed three times in 250 μl of wash buffer (PBS containing 0.05% polysorbate 20), and cells incubated for 1 hour at room temperature with 50 μl of secondary fluorescently-labelled anti-rabbit Alexa Fluor 488 antibody (Molecular Probes, Invitrogen Limited, Catalogue No. A11008) diluted 1:750 in blocking buffer. Plates were washed three times in 250 μl of wash buffer and stored containing 50 μl of PBS at 4° C. until required.
Plates were analysed using an Acumen Explorer Plate-reader to quantify level of fluorescent signal that represents quantity of phosphorylated-GSK-313.
IC50 calculation—IC50 is the concentration of compound required to give 50% effect over the range of activity affected by the compound, between maximum (no compound) and minimum (excess level of compound) response control data. IC50 values were determined by fitting background corrected, dose response assay data to a 4 parameter logistic curve fit equation model with the minimum response set to zero. This was done using an in-house developed algorithm within the Origin graphing software package (OriginLab Corporation, Northampton, Mass., USA). […]

T1 sequence (P31751 with tags, fused parts or gaps limits assumed): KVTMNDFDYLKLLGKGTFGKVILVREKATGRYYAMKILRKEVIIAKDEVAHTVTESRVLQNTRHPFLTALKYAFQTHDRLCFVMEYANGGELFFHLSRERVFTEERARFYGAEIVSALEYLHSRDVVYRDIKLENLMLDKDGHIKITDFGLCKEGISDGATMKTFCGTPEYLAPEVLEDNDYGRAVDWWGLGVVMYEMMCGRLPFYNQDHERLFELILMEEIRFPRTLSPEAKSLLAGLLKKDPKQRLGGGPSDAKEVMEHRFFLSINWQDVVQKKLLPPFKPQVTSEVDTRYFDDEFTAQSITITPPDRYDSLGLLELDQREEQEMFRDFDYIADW

| IC50 (PKB-PIF fusion protein) | IC50 [1] | Structure (SMILES) |
| --- | --- | --- |
| < 100 nM | – | Cc1ccc2nc(C3(N)CCN(c4ncnc5[nH]ccc45)CC3)[nH]c2c1 [Example 5, 4-(6-Methyl-1H-benzoimidazol-2-yl)-1-(7H-pyrrolo[2,3-d]pyrimidin-4-yl)-piperidin-4-ylamine] |
| < 100 nM | – | COc1cccc2[nH]c(C3(N)CCN(c4ncnc5[nH]ccc45)CC3)nc12 [Example 9, 4-(4-Methoxy-1H-benzoimidazol-2-yl)-1-(7H-pyrrolo[2,3-d]pyrimidin-4-yl)-piperidin-4-ylamine] |
| < 100 nM | – | NC1(c2nc3cnccc3[nH]2)CCN(c2ncnc3[nH]ccc23)CC1 [Example 10] |
| < 100 nM | – | NC1(c2nc3ccccc3[nH]2)CCN(c2ccnc3[nH]ccc23)CC1 [Example 19, 4-(1H-benzoimidazol-2-yl)-1-(1H-pyrrolo[2,3-b]pyridin-4-yl)-piperidin-4-ylamine] |
| < 100 nM | – | NC1(c2nc3ccc(Cl)cc3[nH]2)CCN(c2ccnc3[nH]ccc23)CC1 [Example 20, 4-(6-chloro-1H-benzoimidazol-2-yl)-1-(1H-pyrrolo[2,3-b]pyridin-4-yl)-piperidin-4-ylamine] |
| < 1000 nM | – | CNC1(c2nc3ccccc3[nH]2)CCN(c2ncnc3[nH]ccc23)CC1 [Example 33, [4-(1H-benzoimidazol-2-yl)-1-(7H-pyrrolo[2,3-d]pyrimidin-4-yl)-piperidin-4-yl]-methyl-amine] |
| – | 44 nM | NC1(c2nc3c(-c4cncc(F)c4)cccc3[nH]2)CCN(c2ncnc3[nH]ccc23)CC1 [Example 96, 4-[4-(5-fluoropyridin-3-yl)-1H-benzimidazol-2-yl]-1-(7H-pyrrolo[3,2-e]pyrimidin-4-yl)piperidin-4-amine] |
| – | 85 nM | Cc1ccc2[nH]c(C3(CN)CCN(c4ncnc5[nH]ccc45)CC3)nc2c1 [Example 97, (4-(5-methyl-1H-benzo[d]imidazol-2-yl)-1-(7H-pyrrolo[2,3-d]pyrimidin-4-yl)piperidin-4-yl)methanamine] |
| – | 180 nM | Cc1ccc2[nH]c(C3(CN)CCN(c4ncnc5[nH]cc(Br)c45)CC3)nc2c1 [Example 98, (1-(5-bromo-7H-pyrrolo[2,3-d]pyrimidin-4-yl)-4-(5-methyl-1H-benzo[d]imidazol-2-yl)piperidin-4-yl)methanamine] |
| – | 15 nM | NCC1(c2nc3c(-c4ccccc4)cccc3[nH]2)CCN(c2ncnc3[nH]ccc23)CC1 [Example 99, (4-(4-phenyl-1H-benzo[d]imidazol-2-yl)-1-(7H-pyrrolo[2,3-d]pyrimidin-4-yl)piperidin-4-yl)methanamine] |
| – | 14 nM | Cn1cc(-c2cccc3[nH]c(C4(CN)CCN(c5ncnc6[nH]ccc56)CC4)nc23)cn1 [Example 100] |
| – | 9.3 nM | NCC1(c2nc3c(C4CCOC4)cccc3[nH]2)CCN(c2ncnc3[nH]ccc23)CC1 (stereo not drawn) [Example 101, [4-[4-(oxolan-3-yl)-1H-benzimidazol-2-yl]-1-(7H-pyrrolo[3,2-e]pyrimidin-4-yl)piperidin-4-yl]methanamine] |
| – | 33 nM | NC1(c2nc3c(-c4ccccc4)cccc3[nH]2)CCN(c2ncnc3[nH]cnc23)CC1 [Example 103, 4-(4-Phenyl-1H-benzimidazol-2-yl)-1-(9H-purin-6-yl)piperidin-4-amine] |
| – | 120 nM | COc1ccc(-c2cccc3[nH]c(C4(N)CCN(c5ncnc6[nH]cnc56)CC4)nc23)cc1 [Example 104, 4-[4-(4-methoxyphenyl)-1H-benzimidazol-2-yl]-1-(9H-purin-6-yl)piperidin-4-amine] |
| – | 200 nM | CS(=O)(=O)c1ccc(-c2cccc3[nH]c(C4(N)CCN(c5ncnc6[nH]cnc56)CC4)nc23)cc1 [Example 105, 4-[4-(4-methylsulfonylphenyl)-1H-benzimidazol-2-yl]-1-(9H-purin-6-yl)piperidin-4-amine] |
| – | 52 nM | NC1(c2nc3c(-c4ccoc4)cccc3[nH]2)CCN(c2ncnc3[nH]cnc23)CC1 [Example 106, 4-(4-furan-3-yl-1H-benzimidazol-2-yl)-1-(9H-purin-6-yl)piperidin-4-amine] |
| – | 350 nM | NC1(c2nc3c(-c4ccccc4)cccc3[nH]2)CCN(c2ncnc3[nH]ncc23)CC1 [Example 108, 4(4-phenyl-1H-benzo[d]imidazol-2-yl)-1-(1H-pyrazolo[3,4-d]pyrimidin-4-yl)piperidin-4-amine] |
| – | 650 nM | COc1ccc(-c2cccc3[nH]c(C4(N)CCN(c5ncnc6[nH]ncc56)CC4)nc23)cc1 [Example 109, 4-[4-(4-methoxyphenyl)-1H-benzo[d]imidazol-2-yl)-1-(1H-pyrazolo[3,4-d]pyrimidin-4-yl)piperidin-4-amine] |
| – | 490 nM | CS(=O)(=O)c1ccc(-c2cccc3[nH]c(C4(N)CCN(c5ncnc6[nH]ncc56)CC4)nc23)cc1 [Example 110, 4-[4-(4-methylsulfonylphenyl)-1H-benzo[d]imidazol-2-yl)-1-(1H-pyrazolo[3,4-d]pyrimidin-4-yl)piperidin-4-amine] |
| – | 110 nM | NC1(c2nc3c(-c4ccoc4)cccc3[nH]2)CCN(c2ncnc3[nH]ncc23)CC1 [Example 111, 4-(4-furan-3-yl-1H-benzo[d]imidazol-2-yl)-1-(1H-pyrazolo[3,4-d]pyrimidin-4-yl)piperidin-4-amine] |
| – | 300 nM | CS(=O)(=O)c1ccccc1-c1cccc2nc(C3(N)CCN(c4ncnc5[nH]ccc45)CC3)[nH]c12 [Example 112, 4-[7-(2-methylsulfonylphenyl)-1H-benzimidazol-2-yl]-1-(7H-pyrrolo[3,2-e]pyrimidin-4-yl)piperidin-4-amine] |
| – | 38 nM | NCc1cc(-c2cccc3[nH]c(C4(N)CCN(c5ncnc6[nH]ccc56)CC4)nc23)ccc1F [Example 113, 4-(4-(3-(aminomethyl)-4-fluorophenyl)-1H-benzo[d]imidazol-2-yl)-1-(7H-pyrrolo[2,3-d]pyrimidin-4-yl)piperidin-4-amine] |
| – | 270 nM | CS(=O)(=O)Cc1cccc(-c2cccc3[nH]c(C4(N)CCN(c5ncnc6[nH]ccc56)CC4)nc23)c1 [Example 115, 4-(4-(3-(methylsulfonylmethyl)phenyl)-1H-benzo[d]imidazol-2-yl)-1-(7H-pyrrolo[2,3-d]pyrimidin-4-yl)piperidin-4-amine] |
| – | 47 nM | CS(=O)(=O)Cc1ccccc1-c1cccc2[nH]c(C3(N)CCN(c4ncnc5[nH]ccc45)CC3)nc12 [Example 116, 4-(4-(2-(methylsulfonylmethyl)phenyl)-1H-benzo[d]imidazol-2-yl)-1-(7H-pyrrolo[2,3-d]pyrimidin-4-yl)piperidin-4-amine] |
